Columns and labels:
[1] = target: JAK3 kinase (Homo sapiens (Human), UniProt P52333); assay: JAK3 Homogeneous Time Resolved Fluorescence (HTRF) Assay; assay type: binding; conditions: for IC50: competition binding with fluorescein-labeled ATP competitive probe; for Ratio of JAK3 IC50 to IRAK4 IC50: selectivity for IRAK4 over JAK3
Protocol: JAK3 Homogeneous Time Resolved Fluorescence (HTRF) Assay
A time resolved FRET-based competition binding assay was used to assess test article binding to JAK3 kinase. His-tagged or GST-tagged kinase at a concentration of 1 nM was incubated with 0.2 nM Tb-labeled detection antibody (anti-His or anti-GST), test compound, and fluorescein-labeled ATP competitive probe at a concentration corresponding to the probe's equilibrium dissociation constant for one hour. Fluorescence at 495 nm and 520 nm was measured using an EnVision microplate reader to quantify FRET between Tb-labeled detection antibody and fluorescein-labeled probe. Background subtracted FRET ratios were normalized to the maximum signal obtained in the absence of test compound. These values were converted to a percent inhibition. Percent inhibition was determined for test compounds at 11 concentrations. The IC50, defined as the concentration of the competing test compound needed to reduce specific binding of the probe by 50%, was calculated using the 4 parameter logistic equation to fit the data.

[2] = target: IRAK4 (Homo sapiens (Human), UniProt Q9NWZ3); assay: IRAK4 Inhibition Assay; assay type: biochemical; conditions: ATP 500 μM; IRAK4 0.6 nM; 60 min room temperature
Protocol: IRAK4 Inhibition Assay The assays were performed in U-bottom 384-well plates. […] The reaction was initiated by the combination of IRAK4 with substrates and test compounds. The reaction mixture was incubated at room temperature for 60 min. and terminated by adding 45 μL of 35 mM EDTA to each sample. The reaction mixture was analyzed on the Caliper LABCHIP® 3000 (Caliper, Hopkinton, MA) by electrophoretic separation of the fluorescent substrate and phosphorylated product. Inhibition data were calculated by comparison to no enzyme control reactions for 100% inhibition and vehicle-only reactions for 0% inhibition.

Sequence of IRAK4 (Q9NWZ3 whole entry, species assumed): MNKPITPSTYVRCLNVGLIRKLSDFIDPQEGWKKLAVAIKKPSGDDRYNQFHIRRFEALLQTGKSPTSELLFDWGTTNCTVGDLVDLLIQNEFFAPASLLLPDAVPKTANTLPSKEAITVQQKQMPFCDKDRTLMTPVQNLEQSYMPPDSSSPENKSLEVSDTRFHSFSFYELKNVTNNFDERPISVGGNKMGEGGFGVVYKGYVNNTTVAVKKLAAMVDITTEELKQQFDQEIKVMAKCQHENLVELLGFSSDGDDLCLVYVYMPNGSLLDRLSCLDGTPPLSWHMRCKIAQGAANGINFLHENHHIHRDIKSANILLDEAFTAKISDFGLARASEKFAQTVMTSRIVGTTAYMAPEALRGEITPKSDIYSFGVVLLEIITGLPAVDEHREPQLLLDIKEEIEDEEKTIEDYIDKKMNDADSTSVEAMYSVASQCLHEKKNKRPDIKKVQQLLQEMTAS
Sequence of JAK3 kinase (P52333 whole entry): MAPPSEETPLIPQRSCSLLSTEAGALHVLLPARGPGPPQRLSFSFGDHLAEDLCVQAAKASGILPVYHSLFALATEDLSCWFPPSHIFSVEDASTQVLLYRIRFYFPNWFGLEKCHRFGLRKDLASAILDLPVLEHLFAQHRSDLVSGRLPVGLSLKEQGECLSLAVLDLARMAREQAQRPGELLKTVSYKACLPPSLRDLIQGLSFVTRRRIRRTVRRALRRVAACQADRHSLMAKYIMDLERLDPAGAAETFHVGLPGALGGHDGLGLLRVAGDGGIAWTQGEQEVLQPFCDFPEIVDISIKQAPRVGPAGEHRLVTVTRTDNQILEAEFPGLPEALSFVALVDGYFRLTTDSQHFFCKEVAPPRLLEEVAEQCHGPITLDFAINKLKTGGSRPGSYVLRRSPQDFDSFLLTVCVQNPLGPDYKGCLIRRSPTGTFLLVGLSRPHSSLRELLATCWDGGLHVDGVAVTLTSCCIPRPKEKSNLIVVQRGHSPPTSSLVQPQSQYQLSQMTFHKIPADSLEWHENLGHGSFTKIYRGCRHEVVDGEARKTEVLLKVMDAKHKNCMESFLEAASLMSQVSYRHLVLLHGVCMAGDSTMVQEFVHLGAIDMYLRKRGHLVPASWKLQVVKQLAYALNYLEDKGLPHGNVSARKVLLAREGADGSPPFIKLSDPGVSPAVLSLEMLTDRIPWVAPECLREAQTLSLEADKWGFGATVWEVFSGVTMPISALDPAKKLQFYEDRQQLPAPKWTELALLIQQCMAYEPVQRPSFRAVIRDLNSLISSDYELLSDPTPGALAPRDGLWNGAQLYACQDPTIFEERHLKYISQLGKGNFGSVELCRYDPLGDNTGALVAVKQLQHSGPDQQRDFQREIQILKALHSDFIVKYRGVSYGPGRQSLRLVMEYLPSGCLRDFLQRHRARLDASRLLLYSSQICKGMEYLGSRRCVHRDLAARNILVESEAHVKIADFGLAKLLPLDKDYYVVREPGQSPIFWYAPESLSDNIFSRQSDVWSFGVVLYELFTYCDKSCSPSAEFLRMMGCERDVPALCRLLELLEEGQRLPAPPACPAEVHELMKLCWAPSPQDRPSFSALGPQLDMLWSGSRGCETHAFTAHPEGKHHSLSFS

Structure (SMILES): CC(C)Nc1c(C(=O)N[C@H]2CC[C@H](N)CC2)cnn2cc(-c3cccnc3)cc12 [Example 52, N-((1r,4r)-4-aminocyclohexyl)-4-(isopropylamino)-6-(pyridin-3-yl)pyrrolo[1,2-b]pyridazine-3-carboxamide]
- IC50 [1]: ~43000 nM
- Ratio of JAK3 IC50 to IRAK4 IC50 [1]: ~1075
- IC50 [2]: 40 nM

Structure (SMILES): CC(C)Nc1c(C(=O)NC[C@@H](F)C(C)(C)O)cnn2cc(Nc3ccc(C#N)cn3)cc12 [Example 40, (R)-6-((5-cyanopyridin-2-yl)amino)-N-(2-fluoro-3-hydroxy-3-methylbutyl)-4-(isopropylamino) pyrrolo[1,2-b]pyridazine-3-carboxamide]
- IC50 [1]: > 50000 nM
- Ratio of JAK3 IC50 to IRAK4 IC50 [1]: >208
- IC50 [2]: 240 nM

Structure (SMILES): COc1ncccc1-c1cc2ncc(C(=O)NC[C@@H](F)C(C)(C)O)c(NC(C)C)n2n1 [Example 143, (R)—N-(2-fluoro-3-hydroxy-3-methylbutyl)-7-(isopropylamino)-2-(2-methoxypyridin-3-yl)pyrazolo[1,5-a]pyrimidine-6-carboxamide]
- IC50 [1]: > 10000 nM
- Ratio of JAK3 IC50 to IRAK4 IC50 [1]: >16
- IC50 [2]: 630 nM

Structure (SMILES): CC(C)(O)CCNc1c(C(=O)NC[C@@H](F)C(C)(C)O)cnn2cc(-c3cccnc3)cc12 [Example 25, (R)—N-(2-fluoro-3-hydroxy-3-methylbutyl)-4-((3-hydroxy-3-methylbutyl)amino)-6-(pyridin-3-yl) pyrrolo[1,2-b]pyridazine-3-carboxamide]
- IC50 [1]: > 50000 nM
- Ratio of JAK3 IC50 to IRAK4 IC50 [1]: >179
- IC50 [2]: 280 nM

Structure (SMILES): CC(C)Nc1c(C(=O)NC[C@@H](F)C(C)(C)O)cnn2cc(C#N)cc12 [Example 35, (R)-6-cyano-N-(2-fluoro-3-hydroxy-3-methylbutyl)-4-(isopropylamino)pyrrolo[1,2-b]pyridazine-3-carboxamide]
- IC50 [1]: > 50000 nM
- Ratio of JAK3 IC50 to IRAK4 IC50 [1]: >263
- IC50 [2]: 190 nM

Structure (SMILES): CC(C)Nc1c(C(=O)NC[C@@H](F)C(C)(C)O)cnn2cc(-n3ncc4cc(C#N)cnc43)cc12 [Example 39, (R)-6-(5-cyano-1H-pyrazolo[3,4-b]pyridin-1-yl)-N-(2-fluoro-3-hydroxy-3-methylbutyl)-4-(isopropylamino) pyrrolo[1,2-b]pyridazine-3-carboxamide]
- IC50 [1]: > 50000 nM
- Ratio of JAK3 IC50 to IRAK4 IC50 [1]: >2381
- IC50 [2]: 21 nM

Structure (SMILES): CC(C)(O)CCNc1c(C(=O)NC[C@@H](F)C(C)(C)O)cnn2cc(-c3ccc(C#N)nc3)cc12 [Example 27, (R)-6-(6-cyanopyridin-3-yl)-N-(2-fluoro-3-hydroxy-3-methylbutyl)-4-((3-hydroxy-3-methylbutyl)amino)pyrrolo[1,2-b]pyridazine-3-carboxamide]
- IC50 [1]: > 50000 nM
- Ratio of JAK3 IC50 to IRAK4 IC50 [1]: >208
- IC50 [2]: 240 nM

Structure (SMILES): CC(C)Nc1c(C(=O)NC[C@@H](F)C(C)(C)O)cnc2cc(-c3ccccn3)nn12 [Example 152, (R)—N-(2-fluoro-3-hydroxy-3-methylbutyl)-7-(isopropylamino)-2-(pyridin-2-yl)pyrazolo[1,5-a]pyrimidine-6-carboxamide]
- IC50 [1]: > 10000 nM
- Ratio of JAK3 IC50 to IRAK4 IC50 [1]: >63
- IC50 [2]: 160 nM

Structure (SMILES): CC(C)(O)[C@H](F)CNC(=O)c1cnn2cc(-c3nccs3)cc2c1NC1CCOCC1 [Example 19, (R)—N-(2-fluoro-3-hydroxy-3-methylbutyl)-4-((tetrahydro-2H-pyran-4-yl)amino)-6-(thiazol-2-yl) pyrrolo[1,2-b]pyridazine-3-carboxamide]
- IC50 [1]: > 10000 nM
- Ratio of JAK3 IC50 to IRAK4 IC50 [1]: >667
- IC50 [2]: 15 nM

Structure (SMILES): CC(C)(O)[C@H](F)CNC(=O)c1cnn2cc(-c3ccc(C#N)cn3)cc2c1NC1CCOCC1 [Example 20, (R)-6-(5-cyanopyridin-2-yl)-N-(2-fluoro-3-hydroxy-3-methylbutyl)-4-((tetrahydro-2H-pyran-4-yl)amino)pyrrolo[1,2-b] pyridazine-3-carboxamide]
- IC50 [1]: > 50000 nM
- Ratio of JAK3 IC50 to IRAK4 IC50 [1]: >333
- IC50 [2]: 150 nM

— patent US12570659B2, “Bicyclic heteroaryl compounds useful as IRAK4 inhibitors” (BRISTOL-MYERS SQUIBB COMPANY, priority 2019, dated 2026)
